Experimental data taken from ChEMBL document CHEMBL5724914, “Linking interpersonal differences in gut microbiota composition and drug biotransformation activity” (2024).

Key:
[1] = (§1) The drug is tested on Z-030 corresponding to mouse gut metagenome with ENA study accession number: PRJEB37062 and ENA sample accession number: ERS12561829 for biotransformation under anaerobic condition. The drug concentrations were measured over 9 timepoints collected between 0 and 24 hours of incubation by liquid-chromatography-coupled mass spectrometry (LC–MS); details: 2 µM
[2] = as §1, with “Z-028” for “Z-030”, “ERS12561827” for “ERS12561829”; details: 2 µM
[3] = as §1, with “Z-018” for “Z-030”, “pig” for “mouse”, “ERS12561817” for “ERS12561829”; details: 2 µM
[4] = as §1, with “Z-017” for “Z-030”, “ERS12561816” for “ERS12561829”; details: 2 µM
[5] = as §1, with “Z-006” for “Z-030”, “ERS12561806” for “ERS12561829”; details: 2 µM
[6] = as §1, with “WLS-350” for “Z-030”, “human” for “mouse”, “ERS12561789” for “ERS12561829”; details: 2 µM
[7] = as §1, with “WLS-310” for “Z-030”, “human” for “mouse”, “ERS12561785” for “ERS12561829”; details: 2 µM
[8] = as §1, with “WLS-170” for “Z-030”, “human” for “mouse”, “ERS12561762” for “ERS12561829”; details: 2 µM
[9] = as §1, with “WLS-086” for “Z-030”, “human” for “mouse”, “ERS12561752” for “ERS12561829”; details: 2 µM
[10] = as §1, with “WLS-069” for “Z-030”, “human” for “mouse”, “ERS12561748” for “ERS12561829”; details: 2 µM
[11] = as §1, with “WLS-039” for “Z-030”, “human” for “mouse”, “ERS12561746” for “ERS12561829”; details: 2 µM
[12] = as §1, with “WLS-010” for “Z-030”, “human” for “mouse”, “ERS12561743” for “ERS12561829”; details: 2 µM
[13] = human gut metagenome, 24 h, 2 µM
[14] = human gut metagenome, 24 h, 2 µM; remark: listed apart in the source
[15] = human gut metagenome, 24 h, 2 µM; remark: listed apart in the source
[16] = human gut metagenome, 24 h, 2 µM; remark: listed apart in the source
[17] = human gut metagenome, 24 h, 2 µM; remark: listed apart in the source
[18] = human gut metagenome, 24 h, 2 µM; remark: listed apart in the source
[19] = human gut metagenome, 24 h, 2 µM; remark: listed apart in the source
[20] = human gut metagenome, 24 h, 2 µM; remark: listed apart in the source
Further: call rule not given here.

## C=CCc1ccccc1OCC(O)CNC(C)C (stereo not given) [ALPRENOLOL]
[1]
  Bacterial Biotransformation: Compound NOT metabolized
[2]
  Bacterial Biotransformation: Compound NOT metabolized
[3]
  Bacterial Biotransformation: Compound NOT metabolized
[4]
  Bacterial Biotransformation: Compound NOT metabolized
[5]
  Bacterial Biotransformation: Compound NOT metabolized
[6]
  Bacterial Biotransformation: Compound NOT metabolized
[7]
  Bacterial Biotransformation: Compound NOT metabolized
[8]
  Bacterial Biotransformation: Compound metabolized
[9]
  Bacterial Biotransformation: Compound metabolized
[10]
  Bacterial Biotransformation: Compound NOT metabolized
[11]
  Bacterial Biotransformation: Compound NOT metabolized
[12]
  Bacterial Biotransformation: Compound NOT metabolized
[13]
  Bacterial Biotransformation: Compound metabolized
[14]
  Bacterial Biotransformation: Compound NOT metabolized
[15]
  Bacterial Biotransformation: Compound NOT metabolized
[16]
  Bacterial Biotransformation: Compound metabolized
[17]
  Bacterial Biotransformation: Compound metabolized
[18]
  Bacterial Biotransformation: Compound metabolized
[19]
  Bacterial Biotransformation: Compound NOT metabolized
[20]
  Bacterial Biotransformation: Compound NOT metabolized

## COc1ccc2[nH]c([S+]([O-])Cc3ncc(C)c(OC)c3C)nc2n1 (stereo not given) [TENATOPRAZOLE]
[1]
  Bacterial Biotransformation: Compound metabolized
[2]
  Bacterial Biotransformation: Compound metabolized
[3]
  Bacterial Biotransformation: Compound metabolized
[4]
  Bacterial Biotransformation: Compound metabolized
[5]
  Bacterial Biotransformation: Compound metabolized
[6]
  Bacterial Biotransformation: Compound NOT metabolized
[7]
  Bacterial Biotransformation: Compound metabolized
[8]
  Bacterial Biotransformation: Compound NOT metabolized
[9]
  Bacterial Biotransformation: Compound metabolized
[10]
  Bacterial Biotransformation: Compound metabolized
[11]
  Bacterial Biotransformation: Compound metabolized
[12]
  Bacterial Biotransformation: Compound metabolized
[13]
  Bacterial Biotransformation: Compound NOT metabolized
[14]
  Bacterial Biotransformation: Compound metabolized
[15]
  Bacterial Biotransformation: Compound metabolized
[16]
  Bacterial Biotransformation: Compound metabolized
[17]
  Bacterial Biotransformation: Compound NOT metabolized
[18]
  Bacterial Biotransformation: Compound metabolized
[19]
  Bacterial Biotransformation: Compound NOT metabolized
[20]
  Bacterial Biotransformation: Compound metabolized

## CNCCC(Oc1ccc(C(F)(F)F)cc1)c1ccccc1 (stereo not given) [FLUOXETINE]
[1]
  Bacterial Biotransformation: Compound NOT metabolized
[2]
  Bacterial Biotransformation: Compound NOT metabolized
[3]
  Bacterial Biotransformation: Compound NOT metabolized
[4]
  Bacterial Biotransformation: Compound NOT metabolized
[5]
  Bacterial Biotransformation: Compound NOT metabolized
[6]
  Bacterial Biotransformation: Compound NOT metabolized
[7]
  Bacterial Biotransformation: Compound NOT metabolized
[8]
  Bacterial Biotransformation: Compound NOT metabolized
[9]
  Bacterial Biotransformation: Compound NOT metabolized
[10]
  Bacterial Biotransformation: Compound NOT metabolized
[11]
  Bacterial Biotransformation: Compound NOT metabolized
[12]
  Bacterial Biotransformation: Compound NOT metabolized
[13]
  Bacterial Biotransformation: Compound metabolized
[14]
  Bacterial Biotransformation: Compound NOT metabolized
[15]
  Bacterial Biotransformation: Compound NOT metabolized
[16]
  Bacterial Biotransformation: Compound NOT metabolized
[17]
  Bacterial Biotransformation: Compound metabolized
[18]
  Bacterial Biotransformation: Compound NOT metabolized
[19]
  Bacterial Biotransformation: Compound NOT metabolized
[20]
  Bacterial Biotransformation: Compound NOT metabolized

## CC[C@H](C)C(=O)O[C@H]1C[C@@H](C)C=C2C=C[C@H](C)[C@H](CC[C@@H]3C[C@@H](O)CC(=O)O3)[C@H]21 [LOVASTATIN]
[1]
  Bacterial Biotransformation: Compound metabolized
[2]
  Bacterial Biotransformation: Compound metabolized
[3]
  Bacterial Biotransformation: Compound metabolized
[4]
  Bacterial Biotransformation: Compound metabolized
[5]
  Bacterial Biotransformation: Compound NOT metabolized
[6]
  Bacterial Biotransformation: Compound NOT metabolized
[7]
  Bacterial Biotransformation: Compound NOT metabolized
[8]
  Bacterial Biotransformation: Compound NOT metabolized
[9]
  Bacterial Biotransformation: Compound NOT metabolized
[10]
  Bacterial Biotransformation: Compound NOT metabolized
[11]
  Bacterial Biotransformation: Compound NOT metabolized
[12]
  Bacterial Biotransformation: Compound NOT metabolized
[13]
  Bacterial Biotransformation: Compound NOT metabolized
[14]
  Bacterial Biotransformation: Compound NOT metabolized
[15]
  Bacterial Biotransformation: Compound NOT metabolized
[16]
  Bacterial Biotransformation: Compound NOT metabolized
[17]
  Bacterial Biotransformation: Compound NOT metabolized
[18]
  Bacterial Biotransformation: Compound NOT metabolized
[19]
  Bacterial Biotransformation: Compound NOT metabolized
[20]
  Bacterial Biotransformation: Compound NOT metabolized
